From ChEMBL document CHEMBL4251572, “Novel aminopyrimidinyl benzimidazoles as potentially antimicrobial agents: Design, synthesis and biological evaluation” (Eur J Med Chem, 2018)
In brackets after ≈: the same amount, converted by molar mass.

Assays:
Pseudomonas aeruginosa = assay: Antibacterial activity against Pseudomonas aeruginosa after 24 hrs by micro broth dilution assay; assay type: functional
Saccharomyces cerevisiae = assay: Antifungal against Saccharomyces cerevisiae after 24 hrs by two fold serial dilution method; assay type: functional
Pichia norvegensis = assay: Antifungal against Candida mycoderma after 24 hrs by two fold serial dilution method; assay type: functional
Escherichia coli [1] = assay: Antibacterial activity against Escherichia coli DH52 after 24 hrs by micro broth dilution assay; assay type: functional; conditions: DH52, 24 h
Cyberlindnera jadinii = assay: Antifungal against Candida utilis after 24 hrs by two fold serial dilution method; assay type: functional; conditions: Williopsis jadinii
Aspergillus flavus = assay: Antifungal against Aspergillus flavus after 24 hrs by two fold serial dilution method; assay type: functional
Micrococcus luteus = assay: Antibacterial activity against Micrococcus luteus ATCC4698 after 24 hrs by micro broth dilution assay; assay type: functional; conditions: ATCC4698, 24 h
Escherichia coli [2] = assay: Antibacterial activity against Escherichia coli JM109 after 24 hrs by micro broth dilution assay; assay type: functional; conditions: JM109, 24 h
Staphylococcus aureus [3] = assay: Antibacterial activity against Staphylococcus aureus ATCC 25923 after 24 hrs by micro broth dilution assay; assay type: functional; conditions: ATCC 25923, 24 h
Bacillus = assay: Antibacterial activity against Bacillus proteus ATCC 13315 after 24 hrs by micro broth dilution assay; assay type: functional; conditions: ATCC 13315, 24 h
Salmonella typhi = assay: Antibacterial activity against Bacillus typhi after 24 hrs by micro broth dilution assay; assay type: functional, Salmonella enterica subsp. enterica serovar Typhi; conditions: Salmonella enterica
Bacillus subtilis = assay: Antibacterial activity against Bacillus subtilis after 24 hrs by micro broth dilution assay; assay type: functional
Shigella dysenteriae = assay: Antibacterial activity against Shigella dysenteriae after 24 hrs by micro broth dilution assay; assay type: functional
Staphylococcus aureus [4] = assay: Antibacterial activity against methicillin-resistant Staphylococcus aureus N315 after 24 hrs by micro broth dilution assay; assay type: functional; conditions: N315, 24 h
Candida albicans = assay: Antifungal against Candida albicans ATCC 76615 after 24 hrs by two fold serial dilution method; assay type: functional; conditions: ATCC 76615, 24 h

SMILES	MIC (Pseudomonas aeruginosa) [µg/mL]	MIC (Saccharomyces cerevisiae) [µg/mL]	MIC (Pichia norvegensis) [µg/mL]	MIC (Escherichia coli [1]) [µg/mL]	MIC (Cyberlindnera jadinii) [µg/mL]	MIC (Aspergillus flavus) [µg/mL]	MIC (Micrococcus luteus) [µg/mL]	MIC (Escherichia coli [2]) [µg/mL]	MIC (Staphylococcus aureus [3]) [µg/mL]	MIC (Bacillus) [µg/mL]	MIC (Salmonella typhi) [µg/mL]	MIC (Bacillus subtilis) [µg/mL]	MIC (Shigella dysenteriae) [µg/mL]	MIC (Staphylococcus aureus [4]) [µg/mL]	MIC (Candida albicans) [µg/mL]
CCCCCCCCn1c(C(=O)/C=C/c2ccc(F)cc2)nc2ccccc21	512 (≈ 1350 µM)	512 (≈ 1350 µM)	512 (≈ 1350 µM)	8 (≈ 21.1 µM)	64 (≈ 169 µM)	256 (≈ 676 µM)	32 (≈ 84.5 µM)	512 (≈ 1350 µM)	512 (≈ 1350 µM)	512 (≈ 1350 µM)	128 (≈ 338 µM)	16 (≈ 42.3 µM)	512 (≈ 1350 µM)	512 (≈ 1350 µM)	512 (≈ 1350 µM)
O=C(/C=C/c1ccc(Cl)cc1)c1nc2ccccc2[nH]1	512 (≈ 1810 µM)	128 (≈ 453 µM)	512 (≈ 1810 µM)	8 (≈ 28.3 µM)	512 (≈ 1810 µM)	32 (≈ 113 µM)	64 (≈ 226 µM)	256 (≈ 905 µM)	128 (≈ 453 µM)	512 (≈ 1810 µM)	512 (≈ 1810 µM)	512 (≈ 1810 µM)	512 (≈ 1810 µM)	512 (≈ 1810 µM)	512 (≈ 1810 µM)
CCCCCCCCn1c(-c2cc(-c3ccc(Cl)cc3)nc(N)n2)nc2ccccc21	32 (≈ 73.7 µM)	8 (≈ 18.4 µM)	8 (≈ 18.4 µM)	512 (≈ 1180 µM)	8 (≈ 18.4 µM)	256 (≈ 590 µM)	16 (≈ 36.9 µM)	512 (≈ 1180 µM)	256 (≈ 590 µM)	256 (≈ 590 µM)	4 (≈ 9.22 µM)	2 (≈ 4.61 µM)	32 (≈ 73.7 µM)	128 (≈ 295 µM)	8 (≈ 18.4 µM)
CCCCCCn1c(C(=O)/C=C/c2ccc(C)cc2)nc2ccccc21	512 (≈ 1480 µM)	512 (≈ 1480 µM)	512 (≈ 1480 µM)	512 (≈ 1480 µM)	512 (≈ 1480 µM)	512 (≈ 1480 µM)	512 (≈ 1480 µM)	512 (≈ 1480 µM)	512 (≈ 1480 µM)	512 (≈ 1480 µM)	512 (≈ 1480 µM)	512 (≈ 1480 µM)	512 (≈ 1480 µM)	16 (≈ 46.2 µM)	512 (≈ 1480 µM)
Cc1ccc(/C=C/C(=O)c2nc3ccccc3[nH]2)cc1	4 (≈ 15.2 µM)	8 (≈ 30.5 µM)	32 (≈ 122 µM)	8 (≈ 30.5 µM)	16 (≈ 61 µM)	16 (≈ 61 µM)	16 (≈ 61 µM)	4 (≈ 15.2 µM)	8 (≈ 30.5 µM)	4 (≈ 15.2 µM)	2 (≈ 7.62 µM)	16 (≈ 61 µM)	16 (≈ 61 µM)	8 (≈ 30.5 µM)	4 (≈ 15.2 µM)
CCCCCCCCn1c(C(=O)/C=C/c2ccc(C)cc2)nc2ccccc21	512 (≈ 1370 µM)	512 (≈ 1370 µM)	512 (≈ 1370 µM)	512 (≈ 1370 µM)	256 (≈ 684 µM)	512 (≈ 1370 µM)	512 (≈ 1370 µM)	512 (≈ 1370 µM)	512 (≈ 1370 µM)	512 (≈ 1370 µM)	512 (≈ 1370 µM)	512 (≈ 1370 µM)	512 (≈ 1370 µM)	512 (≈ 1370 µM)	256 (≈ 684 µM)
O=C(/C=C/c1ccc(Cl)cc1Cl)c1nc2ccccc2[nH]1	512 (≈ 1610 µM)	16 (≈ 50.4 µM)	512 (≈ 1610 µM)	512 (≈ 1610 µM)	64 (≈ 202 µM)	512 (≈ 1610 µM)	512 (≈ 1610 µM)	128 (≈ 404 µM)	128 (≈ 404 µM)	512 (≈ 1610 µM)	512 (≈ 1610 µM)	64 (≈ 202 µM)	256 (≈ 807 µM)	256 (≈ 807 µM)	256 (≈ 807 µM)
CCCCCCCCn1c(C(=O)/C=C/c2ccc(Cl)cc2Cl)nc2ccccc21	512 (≈ 1190 µM)	512 (≈ 1190 µM)	512 (≈ 1190 µM)	512 (≈ 1190 µM)	512 (≈ 1190 µM)	512 (≈ 1190 µM)	512 (≈ 1190 µM)	256 (≈ 596 µM)	512 (≈ 1190 µM)	512 (≈ 1190 µM)	512 (≈ 1190 µM)	512 (≈ 1190 µM)	512 (≈ 1190 µM)	64 (≈ 149 µM)	512 (≈ 1190 µM)
O=C(/C=C/c1ccc(F)cc1)c1nc2ccccc2[nH]1	128 (≈ 481 µM)	4 (≈ 15 µM)	128 (≈ 481 µM)	64 (≈ 240 µM)	> 512	512 (≈ 1920 µM)	16 (≈ 60.1 µM)	16 (≈ 60.1 µM)	16 (≈ 60.1 µM)	32 (≈ 120 µM)	32 (≈ 120 µM)	64 (≈ 240 µM)	256 (≈ 961 µM)	64 (≈ 240 µM)	128 (≈ 481 µM)
CCCCCCCn1c(-c2cc(-c3ccc(F)cc3)nc(N)n2)nc2ccccc21	512 (≈ 1270 µM)	16 (≈ 39.7 µM)	512 (≈ 1270 µM)	16 (≈ 39.7 µM)	8 (≈ 19.8 µM)	16 (≈ 39.7 µM)	16 (≈ 39.7 µM)	256 (≈ 634 µM)	512 (≈ 1270 µM)	128 (≈ 317 µM)	16 (≈ 39.7 µM)	2 (≈ 4.96 µM)	512 (≈ 1270 µM)	256 (≈ 634 µM)	16 (≈ 39.7 µM)
CCCCCCn1c(-c2cc(-c3ccc(F)cc3)nc(N)n2)nc2ccccc21	128 (≈ 329 µM)	512 (≈ 1310 µM)	4 (≈ 10.3 µM)	512 (≈ 1310 µM)	8 (≈ 20.5 µM)	512 (≈ 1310 µM)	16 (≈ 41.1 µM)	512 (≈ 1310 µM)	512 (≈ 1310 µM)	128 (≈ 329 µM)	32 (≈ 82.2 µM)	512 (≈ 1310 µM)	512 (≈ 1310 µM)	256 (≈ 657 µM)	256 (≈ 657 µM)
